Measurements: patent publication US10975077B2 (Novira Therapeutics, Inc., priority 2016, dated 2021)

Tested on: HBV (encapsidated HBV DNA, HepG2.2.15 cells)
Assay: HBV replication inhibition assay, BDNA assay in HepG2.2.15 cells
Format: cell-based
Settings: Hepatitis B virus, HepG2.2.15, Activity in BDNA-assay
Procedure, shortened: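 HepG2.2.15 cells (stably integrated HBV, 40,000/well) treated with serially diluted compound in 0.5% DMSO for 6 days, medium and compound refreshed at day 3. DNase-treated supernatant lysed with proteinase K; encapsidated HBV DNA quantified by bDNA, percent inhibition versus DMSO controls, EC50 by nonlinear fit.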

**Q.** CN1CC(CCO)Cn2nc3c(c2C1=O)CN(C(=O)Nc1ccc(F)c(Cl)c1)CC3 (stereo not drawn) [Compound 029] was tested. Which EC50 did it give?
**A.** 100 to 500 nM

**Q.** For CCOC(=O)C1CN(C)C(=O)c2c3c(nn2C1)CCN(C(=O)Nc1ccc(F)c(Cl)c1)C3 (stereo not drawn) [Compound 030, ethyl 2-((3-chloro-4-fluorophenyl)carbamoyl)-10-methyl-11-oxo-2,3,4,7,8,9,10,11-octahydro-1H-pyrido[4′,3′:3,4]pyrazolo[1,5-a][1,4]diazepine-8-carboxylate], which EC50 is on record?
**A.** > 1000 nM

**Q.** CNC(=O)C1CN(C)C(=O)c2c3c(nn2C1)CCN(C(=O)Nc1ccc(F)c(Cl)c1)C3 (stereo not drawn) [Compound 031, N2-(3-chloro-4-fluorophenyl)-N8,10-dimethyl-11-oxo-1,3,4,7,8,9,10,11-octahydro-2H-pyrido[4′,3′:3,4]pyrazolo[1,5-a][1,4]diazepine-2,8-dicarboxamide] was tested. Which EC50 did it give?
**A.** 1 to 100 nM

**Q.** How did the EC50 turn out when CN(C)C(=O)C1CN(C)C(=O)c2c3c(nn2C1)CCN(C(=O)Nc1ccc(F)c(Cl)c1)C3 (stereo not drawn) [Compound 032, N2-(3-chloro-4-fluorophenyl)-N8,N8,10-trimethyl-11-oxo-1,3,4,7,8,9,10,11-octahydro-2H-pyrido[4′,3′:3,4]pyrazolo [1,5-a][1,4]diazepine-2,8-dicarboxamide] was run?
**A.** 100 to 500 nM

**Q.** Which EC50 does the source give for CN1CC(C(C)(C)O)Cn2nc3c(c2C1=O)CN(C(=O)Nc1ccc(F)c(Cl)c1)CC3 (stereo not drawn) [Compound 033, N-(3-chloro-4-fluorophenyl)-8-(2-hydroxypropan-2-yl)-10-methyl-11-oxo-3,4,8,9,10,11-hexahydro-1H-pyrido[4′,3′:3,4]pyrazolo[1,5-a][1,4]diazepine-2 (7H)-carboxamide] here?
**A.** 1 to 100 nM

**Q.** For CC(O)C1CN(C)C(=O)c2c3c(nn2C1)CCN(C(=O)Nc1ccc(F)c(Cl)c1)C3 (stereo not drawn) [Compound 034, N-(3-chloro-4-fluorophenyl)-8-(1-hydroxyethyl)-10-methyl-11-oxo-1,3,4,7,8,9,10,11-octahydro-2H-pyrido[4′,3′:3,4]pyrazolo[1,5-a][1,4]diazepine-2-carboxamide], which EC50 is on record?
**A.** 100 to 500 nM

**Q.** CCC(O)C1CN(C)C(=O)c2c3c(nn2C1)CCN(C(=O)Nc1ccc(F)c(Cl)c1)C3 (stereo not drawn) [Compound 035] was tested. Which EC50 did it give?
**A.** 1 to 100 nM

**Q.** For CN1CC(C(O)C2CC2)Cn2nc3c(c2C1=O)CN(C(=O)Nc1ccc(F)c(Cl)c1)CC3 (stereo not drawn) [Compound 036], which EC50 is on record?
**A.** 1 to 100 nM

**Q.** For CN1CC(C(F)F)Cn2nc3c(c2C1=O)CN(C(=O)Nc1ccc(F)c(Cl)c1)CC3 (stereo not drawn) [Compound 037, N-(3-chloro-4-fluorophenyl)-8-(difluoromethyl)-10-methyl-11-oxo-1,3,4,7,8,9,10,11-octahydro-2H-pyrido[4′,3′:3,4]pyrazolo[1,5-a][1,4]diazepine-2-carboxamide], which EC50 is on record?
**A.** 1 to 100 nM

**Q.** With O=C(Nc1ccc(F)c(Cl)c1)N1CCc2nn3c(c2C1)C(=O)N(CC(F)F)CCC3 [Compound 038, N-(3-chloro-4-fluorophenyl)-10-(2,2-difluoroethyl)-11-oxo-1,3,4,7,8,9,10,11-octahydro-2H-pyrido[4′,3′:3,4]pyrazolo[1,5-a][1,4]diazepine-2-carboxamide] as the compound, how does the EC50 read?
**A.** 1 to 100 nM

**Q.** Which EC50 does the source give for CC1CCn2nc3c(c2C(=O)N1C)CN(C(=O)Nc1ccc(F)c(Cl)c1)CC3 (stereo not drawn) [Compound 039, N-(3-chloro-4-fluorophenyl)-9,10-dimethyl-11-oxo-1,3,4,7,8,9,10,11-octahydro-2H-pyrido[4′,3′:3,4]pyrazolo[1,5-a][1,4]diazepine-2-carboxamide] here?
**A.** 1 to 100 nM

**Q.** COC(=O)c1cn2nc3c(c2c(=O)n1C)CN(C(=O)Nc1ccc(F)c(Cl)c1)CC3 [Compound 040, methyl 2-((3-chloro-4-fluorophenyl)carbamoyl)-9-methyl-10-oxo-1,2,3,4,9,10-hexahydropyrido[4′,3′:3,4]pyrazolo[1,5-a]pyrazine-8-carboxylate] was tested. Which EC50 did it give?
**A.** 100 to 500 nM

**Q.** Cn1c(CO)cn2nc3c(c2c1=O)CN(C(=O)Nc1ccc(F)c(Cl)c1)CC3 [Compound 041, N-(3-chloro-4-fluorophenyl)-8-(hydroxymethyl)-9-methyl-10-oxo-3,4,9,10-tetrahydropyrido[4′,3′:3,4]pyrazolo[1,5-a]pyrazine-2 (1H)-carboxamide] was tested. Which EC50 did it give?
**A.** 1 to 100 nM

**Q.** Which EC50 does the source give for Cn1c(C(=O)O)cn2nc3c(c2c1=O)CN(C(=O)Nc1ccc(F)c(Cl)c1)CC3 [Compound 042, 2-((3-chloro-4-fluorophenyl)carbamoyl)-9-methyl-10-oxo-1,2,3,4,9,10-hexahydropyrido[4′,3′:3,4]pyrazolo[1,5-a]pyrazine-8-carboxylic acid] here?
**A.** > 1000 nM

**Q.** Which EC50 does the source give for COC(=O)C1Cn2nc3c(c2C(=O)N1C)CN(C(=O)Nc1ccc(F)c(Cl)c1)CC3 (stereo not drawn) [Compound 043, methyl 2-((3-chloro-4-fluorophenyl)carbamoyl)-9-methyl-10-oxo-1,2,3,4,7,8,9,10-octahydropyrido[4′,3′:3,4]pyrazolo[1,5-a]pyrazine-8-carboxylate] here?
**A.** 100 to 500 nM

**Q.** Which EC50 does the source give for CN1C(=O)c2c3c(nn2CC1CO)CCN(C(=O)Nc1ccc(F)c(Cl)c1)C3 (stereo not drawn) [Compound 044, N-(3-chloro-4-fluorophenyl)-8-(hydroxymethyl)-9-methyl-10-oxo-3,4,7,8,9,10-hexahydropyrido[4′,3′:3,4]pyrazolo[1,5-a]pyrazine-2 (1H)-carboxamide] here?
**A.** 1 to 100 nM

**Q.** For CN1CCn2nc3c(c2C1=O)CN(C(=O)Nc1ccc(F)c(Cl)c1)CC3 [Compound 045, N-(3-chloro-4-fluorophenyl)-9-methyl-10-oxo-3,4,7,8,9,10-hexahydropyrido[4′,3′:3,4]pyrazolo [1,5-a]pyrazine-2 (1H)-carboxamide], which EC50 is on record?
**A.** 1 to 100 nM

**Q.** How did the EC50 turn out when CN1CCCn2nc3c(c2C1)CN(C(=O)Nc1ccc(F)c(Cl)c1)CC3 [Compound 046, N-(3-chloro-4-fluorophenyl)-10-methyl-1,3,4,7,8,9,10,11-octahydro-2H-pyrido[4′,3′:3,4]pyrazolo[1,5-a][1,4]diazepine-2-carboxamide] was run?
**A.** > 1000 nM

**Q.** CN1CC(C(O)CC2CC2)Cn2nc3c(c2C1=O)CN(C(=O)Nc1ccc(F)c(Cl)c1)CC3 (stereo not drawn) [Compound 047, N-(3-chloro-4-fluoro-phenyl)-8-(2-cyclopropyl-1-hydroxy-ethyl)-10-methyl-1-oxo-1,3,4,7,8,9-hexahydropyrido[2,3]pyrazolo[2,4-b][1,4]diazepine-2-carboxamide] was tested. Which EC50 did it give?
**A.** 1 to 100 nM

**Q.** How did the EC50 turn out when C[C@@H]1Cc2nn3c(c2CN1C(=O)Nc1ccc(F)c(Cl)c1)C(=O)N(CC(C)(C)O)CCC3 [Compound 048] was run?
**A.** 100 to 500 nM

**Q.** Which EC50 does the source give for C[C@@H]1Cc2nn3c(c2CN1C(=O)Nc1ccc(F)c(Cl)c1)C(=O)N(CCO)CCC3 [Compound 049, (3R)— N-(3-chloro-4-fluorophenyl)-10-(2-hydroxyethyl)-3-methyl-11-oxo-1,3,4,7,8,9,10,11-octahydro-2H-pyrido[4′,3′:3,4]pyrazolo[1,5-a][1,4]diazepine-2-carboxamide] here?
**A.** 1 to 100 nM

**Q.** CNC1CN(C)C(=O)c2c3c(nn2C1)CCN(C(=O)Nc1ccc(F)c(Cl)c1)C3 (stereo not drawn) [Compound 050, N-(3-chloro-4-fluorophenyl)-10-methyl-8-(methylamino)-11-oxo-1,3,4,7,8,9,10,11-octahydro-2H-pyrido[4′,3′:3,4]pyrazolo[1,5-a][1,4]diazepine-2-carboxamide] was tested. Which EC50 did it give?
**A.** 100 to 500 nM

**Q.** Which EC50 does the source give for O=C(Nc1ccc(F)c(Cl)c1)N1CCc2nn3c(c2C1)C(=O)N(CC(F)(F)F)CC(CO)C3 (stereo not drawn) [Compound 051, N-(3-chloro-4-fluorophenyl)-8-(hydroxymethyl)-11-oxo-10-(2,2,2-trifluoroethyl)-1,3,4,7,8,9,10,11-octahydro-2H-pyrido[4′,3′: 3,4]pyrazolo[1,5-a][1,4]diazepine-2-carboxamide] here?
**A.** 1 to 100 nM

**Q.** With CCOC(=O)C1(C)CN(C)C(=O)c2c3c(nn2C1)CCN(C(=O)Nc1ccc(F)c(Cl)c1)C3 (stereo not drawn) [Compound 052, ethyl 2-((3-chloro-4-fluorophenyl)carbamoyl)-8,10-dimethyl-11-oxo-1,3,4,7,8,9,10,11-octahydro-2H-pyrido[4′,3′:3,4]pyrazolo[1,5-a][1,4]diazepine-8-carboxylate] as the compound, how does the EC50 read?
**A.** 100 to 500 nM

**Q.** How did the EC50 turn out when CN1CC(C)(CO)Cn2nc3c(c2C1=O)CN(C(=O)Nc1ccc(F)c(Cl)c1)CC3 (stereo not drawn) [Compound 053, N-(3-chloro-4-fluorophenyl)-8-(hydroxymethyl)-8,10-dimethyl-11-oxo-1,3,4,7,8,9,10,11-octahydro-2H-pyrido[4′,3′:3,4]pyrazolo[1,5-a][1,4]diazepine-2-carboxamide] was run?
**A.** 1 to 100 nM

**Q.** With CN1CC(N2CCC(F)(F)C2)Cn2nc3c(c2C1=O)CN(C(=O)Nc1ccc(F)c(Cl)c1)CC3 (stereo not drawn) [Compound 054, N-(3-chloro-4-fluorophenyl)-8-(3,3-difluoropyrrolidin-1-yl)-10-methyl-11-oxo-1,3,4,7,8,9,10,11-octahydro-2H-pyrido[4′,3′:3,4]pyrazolo[1,5-a][1,4]diazepine-2-carboxamide] as the compound, how does the EC50 read?
**A.** 100 to 500 nM

**Q.** Which EC50 does the source give for CN1CC(N2CCCCC2)Cn2nc3c(c2C1=O)CN(C(=O)Nc1ccc(F)c(Cl)c1)CC3 (stereo not drawn) [Compound 055, N-(3-chloro-4-fluorophenyl)-10-methyl-11-oxo-8-(piperidin-1-yl)-1,3,4,7,8,9,10,11-octahydro-2H-pyrido[4′,3′:3,4]pyrazolo[1,5-a][1,4]diazepine-2-carboxamide] here?
**A.** 100 to 500 nM

**Q.** For CN1CC(N2CCC(F)(F)CC2)Cn2nc3c(c2C1=O)CN(C(=O)Nc1ccc(F)c(Cl)c1)CC3 (stereo not drawn) [Compound 056, N-(3-chloro-4-fluorophenyl)-8-(4,4-difluoropiperidin-1-yl)-10-methyl-11-oxo-1,3,4,7,8,9,10,11-octahydro-2H-pyrido[4′,3′:3,4]pyrazolo[1,5-a][1,4]diazepine-2-carboxamide], which EC50 is on record?
**A.** 100 to 500 nM

**Q.** With COC(=O)C1CCn2nc3c(c2C(=O)N1C)CN(C(=O)Nc1ccc(F)c(Cl)c1)CC3 (stereo not drawn) [Compound 057, methyl 2-((3-chloro-4-fluorophenyl)carbamoyl)-10-methyl-11-oxo-1,3,4,7,8,9,10,11-octahydro-2H-pyrido[4′,3′:3,4]pyrazolo[1,5-a][1,4]diazepine-9-carboxylate] as the compound, how does the EC50 read?
**A.** 100 to 500 nM

**Q.** CN1C(=O)c2c3c(nn2CCC1C(=O)O)CCN(C(=O)Nc1ccc(F)c(Cl)c1)C3 (stereo not drawn) [Compound 058, 2-((3-chloro-4-fluorophenyl)carbamoyl)-10-methyl-11-oxo-1,3,4,7,8,9,10,11-octahydro-2H-pyrido[4′,3′:3,4]pyrazolo[1,5-a][1,4]diazepine-9-carboxylic acid] was tested. Which EC50 did it give?
**A.** > 1000 nM
